Source: article PMC2788236 (The Journal of infectious diseases, 2009)

How the values were obtained:
[1] = test system: western equine encephalitis virus replicon; test: microbe, parasite or virus in culture; assay type: cell-based
Fort Morgan virus (FMV) [2] = test system: Fort Morgan virus (FMV)
Fort Morgan virus (FMV) [3] = test: microbe, parasite or virus in culture; conditions: BE(2)-C, 48 h, read-out: cell viability of FMV-infected cells
Sindbis virus (SINV) = test: microbe, parasite or virus in culture; conditions: BE(2)-C, 48 h, read-out: cell viability of SINV-infected cells
Fort Morgan virus (FMV) [4] = assay type: cell-based

SMILES	IC50, dose-response analysis (SAR, figure 4) [1]	selectivity index (CC50/IC50 ratio) [1]	suppression of fLUC expression [1]	other results
O=C(NCc1ccccc1)C1CCN(C(=O)c2cc3sccc3n2Cc2ccc(F)cc2)CC1 [CCG32088]	submicromolar			
O=C(NCc1ccco1)C1CCN(C(=O)c2cc3sccc3n2Cc2ccc(F)cc2)CC1 [CCG32091, 1-({4-[(4-fluorophenyl)methyl]-4H-thieno[3,2-b]pyrrol-5-yl}-carbonyl)-N-(furan-2-ylmethyl)piperidine-4-carboxamide]		> 20		concentration effectively suppressing FMV-induced cytopathic effect (as low as) (Fort Morgan virus (FMV) [2]): ≤ 3 µmol/L; viability at 12.5 µM (Fort Morgan virus (FMV) [3]): 70%; viability at 12.5 µM (Sindbis virus (SINV)): 50%; suppression of infectious FMV production (Fort Morgan virus (FMV) [4]): > 90%
O=C(NCc1ccco1)C1CCN(C(=O)c2cc3sccc3n2Cc2ccc(Cl)cc2)CC1 [CCG32095]	submicromolar			
COc1c(C)c2c(c(O)c1C/C=C(\C)CCC(=O)O)C(=O)OC2 [mycophenolic acid]			~ 80%	
NC(=O)c1ncn([C@@H]2O[C@H](CO)[C@@H](O)[C@H]2O)n1 [ribavirin]		19	~ 80%	IC50 ([1]; Western equine encephalitis virus, BSR-T7/5, read-out: IC50, inhibition of fLUC activity): 16 µM
